Legend:
[1] = tested on: rat; details: Developmental neurotoxicity study; sprague dawley; Oral; Gavage/Intubation; dose end: 70 PND; group: cannot be grouped; reproductive / reproductive performance / gestational length / gestational length + systemic / in life observation / body weight / body …
[2] = tested on: rat; details: Developmental neurotoxicity study; sprague dawley; Oral; Water; dose end: 42 PND; group: cannot be grouped; developmental / developmental landmark / eye opening / eye opening + systemic / in life observation / body weight / offspring (pup) weight
[3] = tested on: rat; details: Developmental neurotoxicity study; fischer; Oral; Water; dose end: 90 PND; group: cannot be grouped; developmental / developmental landmark / incisor eruption / incisor eruption + systemic / in life observation / body weight / offspring (pup…
[4] = tested on: rat; details: Multigenerational reproductive toxicity study, other, Oral, Feed, dose end: 2 generation
[5] = tested on: dog; details: Subchronic oral toxicity in nonrodent, beagle, Feed, dose end: 90 day, group: systemic, systemic / clinical chemistry / cortisol / cortisol + systemic / organ weight / liver / relative to body weight + systemic / pathology …
[6] = tested on: mouse; details: Subchronic oral toxicity in rodents, cd1, Feed, dose end: 90 day, group: systemic, systemic / clinical chemistry / hepatic mixed function oxidase (mfo) assay / hepatic mixed function oxidase (mfo) assay + systemic / in life…
[7] = tested on: rat; details: Combined chronic toxicity/carcinogenicity, other, Oral, Feed, dose end: 24 month, group: systemic
[8] = tested on: rat; details: Subchronic oral toxicity in rodents, sprague dawley, Feed, dose end: 90 day, group: systemic
[9] = tested on: mouse; details: Carcinogenicity; b6c3f1; Oral; Feed; dose end: 78 week; group: systemic; systemic / in life observation / body weight / body weight gain
[10] = tested on: dog; details: Chronic toxicity, beagle, Oral, Feed, dose end: 52 week, group: systemic
[11] = group: offspring, developmental / offspring survival late / viability index / viability index + systemic / in life observation / body weight / offspring (pup…
[12] = group: parental, systemic / pathology microscopic / liver / hypertrophy + systemic / pathology microscopic / liver / vacuolization
[13] = group: reproductive, reproductive / offspring survival early / dead fetuses / dead fetuses
[14] = systemic / pathology microscopic / liver / hypertrophy + systemic / pathology microscopic / liver / vacuolization + systemic / clinical …
[15] = systemic / pathology microscopic / thyroid gland / hypertrophy
[16] = systemic / pathology microscopic / thyroid gland / hypertrophy + systemic / clinical chemistry / alanine aminotransferase (alt/sgpt) / …
[17] = systemic / clinical chemistry / albumin / albumin + systemic / clinical chemistry / alkaline phosphatase (alp/alk) / alkaline phosphatase (…
[18] = systemic / hematology / hematocrit (hct) / hematocrit (hct) + systemic / hematology / hemoglobin (hgb) / hemoglobin (hgb)

`Cn1cc[nH]c1=S` [Methimazole] gave an LEL [1] of 20 mg/kg/day, an LOAEL [1] of over 20 mg/kg/day and an NEL [1] of under 20 mg/kg/day. For the same compound, the NOAEL [1] was at least 20 mg/kg/day, the LEL [2] was 7 mg/kg/day and the LOAEL [2] was over 7 mg/kg/day. The NEL [2] was under 7 mg/kg/day, the NOAEL [2] was at least 7 mg/kg/day and the LEL [3] was 1.5 mg/kg/day. The LOAEL [3] was over 15 mg/kg/day, the NEL [3] was under 1.5 mg/kg/day and the NOAEL [3] was at least 15 mg/kg/day.

`OC(c1ccc(Cl)cc1)(c1ccc(Cl)cc1)C(Cl)(Cl)Cl` [Dicofol] gave an LEL ([4]; group: offspring, developmental / offspring survival late / [other] / [other] + developmental / offspring survival late / viability index / viability index) of 11.2 mg/kg/day, an NEL ([4]; group: offspring, developmental / offspring survival late / [other] / [other] + developmental / offspring survival late / viability index / viability index + …) of 2.2 mg/kg/day and an LOAEL [4, 11] of over 23.2 mg/kg/day. It also gave an NOAEL [4, 11] of at least 23.2 mg/kg/day, an LEL [4, 12] of 1.9 mg/kg/day and an LOAEL [4, 12] of 1.9 mg/kg/day. It also gave an NEL [4, 12] of 0.4 mg/kg/day, an NOAEL [4, 12] of 0.4 mg/kg/day and an LEL [4, 13] of 23.2 mg/kg/day. The LOAEL [4, 13] was over 23.2 mg/kg/day, the NEL [4, 13] was 11.2 mg/kg/day and the NOAEL [4, 13] was at least 23.2 mg/kg/day. The LEL [5] was 3.3 mg/kg/day, the LOAEL [5] was 3.3 mg/kg/day and the NEL [5] was 0.29 mg/kg/day. The NOAEL [5] was 0.29 mg/kg/day, the LEL [6] was 18.2 mg/kg/day and the LOAEL [6] was 18.2 mg/kg/day. For the same compound, the NEL [6] was 1.6 mg/kg/day, the NOAEL [6] was 1.6 mg/kg/day and the LOAEL ([7]; systemic / pathology microscopic / liver / hypertrophy + systemic / pathology microscopic / liver / vacuolization) was 2.23 mg/kg/day. The LEL [7, 14] was 2.23 mg/kg/day, the NEL [7, 14] was 0.22 mg/kg/day and the NOAEL [7, 14] was 0.22 mg/kg/day. For the same compound, the LEL [8, 15] was 0.64 mg/kg/day, the LOAEL [8, 15] was 0.64 mg/kg/day and the NEL [8, 16] was 0.07 mg/kg/day. It also gave an NOAEL [8, 16] of 0.07 mg/kg/day, an LEL [9] of 35 mg/kg/day and an LOAEL [9] of 35 mg/kg/day. The NEL [9] was 17 mg/kg/day, the NOAEL [9] was 17 mg/kg/day and the LOAEL [10, 17] was 5.42 mg/kg/day. The NOAEL [10, 17] was 0.85 mg/kg/day, the LEL [10, 18] was 0.12 mg/kg/day and the NEL [10, 18] was under 0.12 mg/kg/day.
